Assay results as given in patent publication US8163160B2, “Biosensor having improved hematocrit and oxygen biases” (Abbott Diabetes Care Inc., priority 2002, dated 2012).
≈ marks a conversion by molar mass, not a printed value.

Assay: Solubility tests in water
Assay type: physicochemical
Method: Solubility tests in water were performed on the new redox mediators in comparison with the standard PQ mediators.

Compound | Solubility in Water (percent) | solubility | Solubility in Water
O=C1C(=O)c2cccnc2-c2ncccc21 [PQ, 1,10-phenanthroline-5,6-dione, reference compound] | mg/ml (0.2%) | 2000 µg/mL (≈ 9.52 mM) | –
CC(=O)[O-].CC(=O)[O-].O=C1C(=O)c2cccnc2-c2ncccc21.O=C1C(=O)c2cccnc2-c2ncccc21.O=C1C(=O)c2cccnc2-c2ncccc21.[Ni+2] [[Ni(PQ)3](O2CCH3)2] | mg/ml (>50%) | – | >500000 µg/mL
O=C1C(=O)c2cccnc2-c2ncccc21.O=C1C(=O)c2cccnc2-c2ncccc21.O=C1C(=O)c2cccnc2-c2ncccc21.[Ni+2].[O-][Cl+3]([O-])([O-])[O-].[O-][Cl+3]([O-])([O-])[O-] [[Ni(PQ)3](ClO4)2] | mg/ml (<0.05%) | – | <500 µg/mL
